Measured values from US11174226B2, “Azetidinimines as carbapenemases inhibitors” (priority 2015, dated 2021).

What was measured:
NDM-1 Enzyme = NDM-1 Enzyme (Klebsiella pneumoniae, UniProt C7C422); test: Imipenem hydrolysis followed by UV absorbance slope, NDM-1 enzyme; format: biochemical; settings: for inhibition at 5 µM: C 5 μM
Experimental: (§1) These tests were conducted by comparing UV absorbance slope measurements of impenem alone, and then imipenem with the concerned azetidinimines at given concentrations in the presence of the enzyme. It was thus possible to monitor the hydrolysis of imipenem. Lower the value of the slope, the higher is the percentage of inhibition of the enzyme.

OXA-48 Enzyme = OXA-48 Enzyme (Klebsiella pneumoniae, UniProt Q6XEC0); test: Imipenem hydrolysis followed by UV absorbance slope, OXA-48 enzyme; format: biochemical; settings: for inhibition at 10 µM / OXA-48 Enzyme Inhibition %: C 10 μM; for OXA-48 Enzyme, effect in words: Inhibition %, IC50
Chain of OXA-48 Enzyme (Q6XEC0 23-265, looked up, species assumed): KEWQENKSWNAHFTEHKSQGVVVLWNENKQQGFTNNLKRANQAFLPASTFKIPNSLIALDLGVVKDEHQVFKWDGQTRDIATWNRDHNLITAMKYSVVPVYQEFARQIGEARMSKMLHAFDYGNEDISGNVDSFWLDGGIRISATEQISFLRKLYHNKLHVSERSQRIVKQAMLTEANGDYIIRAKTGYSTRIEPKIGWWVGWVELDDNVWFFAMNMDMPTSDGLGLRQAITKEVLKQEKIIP
Experimental: as §1

KPC Enzyme = KPC Enzyme (Klebsiella pneumoniae, UniProt Q9F663); test: Imipenem hydrolysis followed by UV absorbance slope, KPC enzyme; format: biochemical; settings: for inhibition at 10 µM / KPC Enzyme Inhibition %: C 10 μM; for inhibition at 5 µM: C 5 μM
Chain of KPC Enzyme (Q9F663 25-293, looked up): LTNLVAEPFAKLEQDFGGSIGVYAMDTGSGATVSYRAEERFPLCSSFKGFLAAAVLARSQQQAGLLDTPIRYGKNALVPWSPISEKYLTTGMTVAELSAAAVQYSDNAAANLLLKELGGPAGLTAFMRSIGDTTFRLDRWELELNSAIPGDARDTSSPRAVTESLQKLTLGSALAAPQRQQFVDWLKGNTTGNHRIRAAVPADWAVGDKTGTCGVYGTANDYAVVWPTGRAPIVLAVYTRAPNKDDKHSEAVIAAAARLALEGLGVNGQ
Experimental: as §1

[1] = Stability tests of imipenem with increasing concentrations of tested molecules
Experimental: as §1
Stability tests of imipenem with increasing concentrations of tested molecules of the present invention (T4#1, i.e. compound #1 of table 4; T4#7 i.e. compound #7 of table 4; T4#9 i.e. compound #9 of table 4; T4#2 i.e. compound #2 of table 4) were also conducted (Table 2).

Chain of NDM-1 Enzyme (C7C422 29-270, looked up, species assumed): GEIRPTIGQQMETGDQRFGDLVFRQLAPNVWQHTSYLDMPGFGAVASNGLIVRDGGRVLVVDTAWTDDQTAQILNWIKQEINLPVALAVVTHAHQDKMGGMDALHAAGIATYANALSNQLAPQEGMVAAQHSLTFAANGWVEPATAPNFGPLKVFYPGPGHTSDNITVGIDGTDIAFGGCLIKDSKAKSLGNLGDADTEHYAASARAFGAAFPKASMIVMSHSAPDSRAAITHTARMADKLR

| Structure (SMILES) | IC50 (NDM-1 Enzyme) | IC50 (KPC Enzyme) | IC50 (OXA-48 Enzyme) | also measured |
| --- | --- | --- | --- | --- |
| COc1ccc(C2C/C(=N\c3ccccc3)N2c2ccc(OC)cc2)cc1 (stereo not shown) | 5 to 10 µM |  |  | inhibition at 10 µM (NDM-1 Enzyme; C 10 μM): 67%; inhibition at 10 µM (OXA-48 Enzyme): 3%; inhibition at 10 µM (KPC Enzyme): 7% |
| COc1ccc(N2/C(=N/c3ccccc3)CC2c2ccc(F)cc2)cc1 (stereo not shown) |  |  |  | inhibition at 10 µM (NDM-1 Enzyme; C 10 μM): 9%; OXA-48 Enzyme, effect in words (OXA-48 Enzyme): No reported effect; inhibition at 10 µM (KPC Enzyme): 10% |
| COc1ccc(N2/C(=N/c3ccccc3)CC2c2cc(Cl)cc(Cl)c2)cc1 (stereo not shown) | 2.5 to 5 µM | 2.5 to 5 µM |  | inhibition at 5 µM (NDM-1 Enzyme): 97%; inhibition at 5 µM (OXA-48 Enzyme; C 5 μM): 15%; inhibition at 5 µM (KPC Enzyme): 84% |
| COc1ccc(N2/C(=N/c3ccccc3)CC2c2ccc3ccccc3c2)cc1 (stereo not shown) | 2.5 to 5 µM | 5 to 7 µM | 10 to 20 µM | inhibition at 5 µM (NDM-1 Enzyme): 94%; inhibition at 20 µM (OXA-48 Enzyme; C 20 μM): 94%; inhibition at 10 µM (KPC Enzyme): 99% |
| COc1ccc(N2/C(=N/c3ccccc3)CC2c2cccnc2)cc1 (stereo not shown) | > 100 µM | > 100 µM |  | inhibition at 100 µM (NDM-1 Enzyme; C 100 μM): 23%; OXA-48 Enzyme, effect in words (OXA-48 Enzyme): No reported effect; inhibition at 100 µM (KPC Enzyme; C 100 μM): 12% |
| CSc1ccc(N2/C(=N/c3ccccc3)CC2c2ccccc2)cc1 (stereo not shown) | < 1 µM | < 10 µM |  | inhibition at 5 µM (NDM-1 Enzyme): 98%; inhibition at 10 µM (OXA-48 Enzyme): 15%; inhibition at 20 µM (KPC Enzyme; C 20 μM): 82% |
| CCOc1ccc(N2/C(=N/c3ccccc3)CC2c2ccccc2)cc1 (stereo not shown) | 0.5 to 5 µM | < 5 µM | > 10 µM | inhibition at 5 µM (NDM-1 Enzyme): 100%; inhibition at 10 µM (OXA-48 Enzyme): 45%; inhibition at 5 µM (KPC Enzyme): 100% |
| COc1ccc(N2/C(=N/c3ccc(I)cc3)CC2c2ccc(Cl)cc2)cc1 (stereo not shown) | 0.7 µM | 2.7 µM | 7.5 µM |  |
| COc1ccc(N2/C(=N/c3ccc(I)cc3)CC2c2ccccc2)cc1 (stereo not shown) | 1.1 µM | 3.3 µM | 9.2 µM |  |
| COc1ccc(N2/C(=N/c3ccc(Cl)cc3)CC2c2ccc(Cl)cc2)cc1 (stereo not shown) | 0.5 µM | 2.9 µM | > 50 µM |  |
| COc1ccc(N2/C(=N/c3ccc(Cl)cc3)CC2c2ccccc2)cc1 (stereo not shown) |  | 2 µM | > 50 µM | inhibition at 10 µM (NDM-1 Enzyme; C 10 μM): 100% |
| COc1ccc(N2/C(=N/c3ccc(C(F)(F)F)cc3)CC2c2ccc(Cl)cc2)cc1 (stereo not shown) |  | 3.6 µM | > 50 µM | inhibition at 10 µM (NDM-1 Enzyme; C 10 μM): 100% |
| CCOc1ccc(N2/C(=N/c3ccc(OC)cc3)CC2c2ccc3ccccc3c2)cc1 (stereo not shown) | 0.6 µM | 2.4 µM | 7.4 µM |  |
| CCOc1ccc(N2/C(=N/c3ccc(I)cc3)CC2c2ccc3ccccc3c2)cc1 (stereo not shown) | 0.5 µM | 2.5 µM | 6.2 µM |  |
| COc1ccc(N2/C(=N/c3ccc(I)cc3)CC2c2cc(Cl)cc(Cl)c2)cc1 (stereo not shown) | 0.5 µM | 2.9 µM | 8.5 µM |  |
| c1ccc(COc2ccc(N3/C(=N/c4ccccc4)CC3c3ccccc3)cc2)cc1 (stereo not shown) | 0.4 µM |  |  | inhibition at 10 µM (OXA-48 Enzyme): 31%; inhibition at 10 µM (KPC Enzyme): 86% |
| COc1ccc(N2/C(=N/c3ccccc3)CC2c2ccccc2)cc1OC (stereo not shown) | 5 to 10 µM |  |  | inhibition at 10 µM (OXA-48 Enzyme): 9%; inhibition at 10 µM (KPC Enzyme): 17% |
| c1ccc(/N=C2\CC(c3ccccc3)N2c2ccc3c(c2)OCO3)cc1 (stereo not shown) | 5 µM |  |  | inhibition at 10 µM (OXA-48 Enzyme): 20%; inhibition at 10 µM (KPC Enzyme): 6% |
| c1ccc(/N=C2\CC(c3ccccc3)N2c2ccc3c(c2)OCCO3)cc1 (stereo not shown) | 1.3 µM | 5 to 10 µM | > 50 µM |  |
| COc1cccc(N2/C(=N/c3ccccc3)CC2c2ccccc2)c1 (stereo not shown) | 1.3 µM | 5 to 10 µM | > 50 µM |  |
| COc1cccc(N2/C(=N/c3ccccc3)CC2c2ccc(Cl)cc2)c1 (stereo not shown) | 0.4 µM | 2.5 to 5 µM | > 50 µM |  |

| Structure (SMILES) | IC50 (NDM-1 Enzyme) | IC50 (KPC Enzyme) | IC50 (OXA-48 Enzyme) | also measured |
| --- | --- | --- | --- | --- |
| COc1ccccc1N1/C(=N/c2ccccc2)CC1c1ccc(Cl)cc1 (stereo not shown) | 1.1 µM | 5 to 10 µM | > 50 µM |  |
| COC(=O)c1ccc(C2C/C(=N\c3ccccc3)N2c2ccccc2)cc1 (stereo not shown) | 4.8 µM |  |  | inhibition at 10 µM (OXA-48 Enzyme): 3.5%; inhibition at 10 µM (KPC Enzyme): 6% |
| c1ccc(/N=C2\CC(c3ccccc3)N2c2ccccc2)cc1 (stereo not shown) | 1.2 µM | 6 µM |  | OXA-48 Enzyme Inhibition % (OXA-48 Enzyme): No measurable effect at 10 μM |
| CC(C)(C)OC(=O)c1ccc(C2C/C(=N\c3ccccc3)N2c2ccccc2)cc1 (stereo not shown) | 1.8 µM |  |  | inhibition at 10 µM (OXA-48 Enzyme): 32%; inhibition at 10 µM (KPC Enzyme): 45% |
| CC(C)(C)OC(=O)COc1ccc(N2/C(=N/c3ccccc3)CC2c2ccc(Cl)cc2)cc1 (stereo not shown) | 2.6 µM | 1.3 µM | > 50 µM |  |
| O=C(O)c1ccc(C2C/C(=N\c3ccccc3)N2c2ccccc2)cc1 (stereo not shown) | 0.7 µM | > 50 µM | > 50 µM |  |
| O=C(O)COc1ccc(N2/C(=N/c3ccccc3)CC2c2ccc(Cl)cc2)cc1 (stereo not shown) | 0.6 µM | > 50 µM | > 50 µM |  |
| Oc1ccc(N2/C(=N/c3ccccc3)CC2c2ccccc2)cc1 (stereo not shown) | 0.8 µM | > 50 µM | > 10 µM |  |
| Oc1ccc(N2/C(=N/c3ccccc3)CC2c2ccc(Cl)cc2)cc1 (stereo not shown) | 3.6 µM | 5 to 7 µM | > 10 µM |  |
| CC(C)(C)OC(=O)NCCOC(=O)c1ccc(C2C/C(=N\c3ccccc3)N2c2ccccc2)cc1 (stereo not shown) | 2.9 µM |  | > 50 µM |  |
| ClCc1ccc(C2C/C(=N\c3ccccc3)N2c2ccccc2)cc1 (stereo not shown) | 2.5 µM | 6 µM |  | OXA-48 Enzyme Inhibition % (OXA-48 Enzyme): No measurable effect at 10 μM |
| [N-]=[N+]=NCc1ccc(C2C/C(=N\c3ccccc3)N2c2ccccc2)cc1 (stereo not shown) |  |  | > 50 µM | inhibition at 10 µM (NDM-1 Enzyme; C 10 μM): 100%; inhibition at 10 µM (KPC Enzyme): 89% |
| COc1ccc(N2/C(=N/c3ccccc3)CC2c2ccccc2)cc1 (single isomer, unassigned) [Enantiomer 1] | < 5 µM | < 10 µM |  | NDM-1 Enzyme Inhibition % (NDM-1 Enzyme; C 10 μM): 97%; KPC Enzyme Inhibition % (KPC Enzyme): 70% |
| COc1ccc(N2/C(=N/c3ccccc3)CC2c2ccccc2)cc1 (single isomer, unassigned) [Enantiomer 2] | < 5 µM | > 10 µM |  | inhibition at 10 µM (NDM-1 Enzyme; C 10 μM): 95%; KPC Enzyme Inhibition % (KPC Enzyme): 45% |
| COc1ccc(N2/C(=N/c3ccccc3)CC2c2ccccc2)cc1 (stereo not shown) [T4#1] |  |  |  | Slope (stability test of imipenem) ([1]; C 1 μM of tested molecule): 9; Slope (stability test of imipenem) ([1]; C 10 μM of tested molecule): 50; Slope (stability test of imipenem) ([1]; C 100 μM of tested molecule): 506 |
| COc1ccc(C2C/C(=N\c3ccccc3)N2c2ccccc2)cc1 (stereo not shown) [T4#2, (E)-N-(4-(4-methoxyphenyl)-1-phenylazetidin-2-ylidene)aniline] |  |  |  | Slope (stability test of imipenem) ([1]; C 1 μM of tested molecule): 3; Slope (stability test of imipenem) ([1]; C 10 μM of tested molecule): 30; Slope (stability test of imipenem) ([1]; C 100 μM of tested molecule): 321 |
| COc1cc(N2/C(=N/c3ccccc3)CC2c2ccccc2)cc(OC)c1OC (stereo not shown) [T4#7, (E)-N-(4-phenyl-1-(3,4,5-trimethoxyphenyl)azetidin-2-ylidene)aniline] |  |  |  | Slope (stability test of imipenem) ([1]; C 1 μM of tested molecule): 0; Slope (stability test of imipenem) ([1]; C 10 μM of tested molecule): 10; Slope (stability test of imipenem) ([1]; C 100 μM of tested molecule): 174 |
| COc1ccc(N2/C(=N/c3ccccc3)CC2c2ccccc2)cc1 (stereo not shown) [drawing 74] | 2 to 5 µM | ~7 µM |  | inhibition at 10 µM (NDM-1 Enzyme; C 10 μM): 90%; OXA-48 Enzyme, effect in words (OXA-48 Enzyme): No reported effect |
| COc1cc(N2/C(=N/c3ccccc3)CC2c2ccccc2)cc(OC)c1OC (stereo not shown) [drawing 75] | > 50 µM | > 50 µM |  | inhibition at 50 µM (NDM-1 Enzyme; C 50 μM): 78%; OXA-48 Enzyme, effect in words (OXA-48 Enzyme): No reported effect |
| COc1ccc(N2/C(=N/c3ccccc3)CC2c2ccc(Cl)cc2)cc1 (stereo not shown) [drawing 76] | 2 to 5 µM |  |  | inhibition at 10 µM (NDM-1 Enzyme; C 10 μM): 96%; OXA-48 Enzyme IC50 (OXA-48 Enzyme): Solubility problems; inhibition at 50 µM (OXA-48 Enzyme; C 50 μM): 21%; inhibition at 50 µM (KPC Enzyme; C 50 μM): 44% |
| COc1ccc(C2C/C(=N\c3ccccc3)N2c2ccccc2)cc1 (stereo not shown) [drawing 77] | > 10 µM |  |  | inhibition at 20 µM (NDM-1 Enzyme; C 20 μM): 58%; OXA-48 Enzyme, effect in words (OXA-48 Enzyme): No reported effect; KPC Enzyme, effect in words (KPC Enzyme; Inhibition %, IC50): No reported effect |
